Test results as given in US7612018B2, “Insecticides” (Syngenta Crop Protection, Inc., priority 2004, dated 2009).

Assays:
[1] = test system: Spodoptera littoralis; test: Systemic Insecticide Test for Spodoptera littoralis (Example B9); format: in vivo; details: for Death rate (%) after 4 days: 1st instar larvae on cut leaves, one replicate
Protocol: Four day old maize seedlings (Zea mais, variety Stoneville) are placed individual in vials containing 24 ml water into which the chemical is diluted at the prescribed concentrations (12.5, 3 and 0.8 ppm). Seedlings are allowed to grow for six days. Subsequently leaves are cut and placed in a Petri dish (3.5 cm diameter), inoculated with twelve to fifteen 1st instar S. littoralis larvae and incubated for four days in a growth chamber (25° C., 50% r.h., 18:6 L:D photo period). Number of alive insects are counted and percentage of dead calculated. Tests were conducted with one replicate.

[2] = test system: Plutella xylostella; test: Activity against Plutella xylostella (Example B7); format: in vivo; details: 72 h, young cabbage plants, spray 400 ppm, 3rd instar caterpillars, 3 days, read-out: percentage reduction in the population and in the feeding damage (% activity)
Protocol: (§1) Young cabbage plants are sprayed with an aqueous emulsion spray mixture comprising 400 ppm of active ingredient and, after the spray coating has dried on, populated with 10 caterpillars (3rd instar) of Plutella xylostella and introduced into a plastic container. 3 days later, the percentage reduction in the population and in the feeding damage (% activity) are determined by comparing the number of dead caterpillars and the feeding damage between the treated and untreated plants.

[3] = test system: Spodoptera littoralis; test: Activity against Spodoptera littoralis (Example B8); format: in vivo; details: 72 h, young soya plants, spray 400 ppm, 1st instar caterpillars, 3 days, read-out: percentage reduction in the population and in the feeding damage (% activity)
Protocol: as §1, with “soya” for “cabbage”, “(1st” for “(3rd”, “Spodoptera littoralis” for “Plutella xylostella”, “plants. In this test, compounds listed in the Tables above show good activity. In particular, the compounds T.64.1.136, T1.1.136, T64.1.1 and T1.1.1 have an activity of over 80%.” for “plants.”

[4] = test system: Heliothis virescens; test: Activity against Heliothis virescens (foliar application) (Example B3); format: in vivo; details: 144 h, young soya plants, spray 400 ppm, 1st instar caterpillars, 6 days, read-out: percentage reduction in the population and in the feeding damage (% activity)
Protocol: as §1, with “soya” for “cabbage”, “(1st” for “(3rd”, “Heliothis virescens” for “Plutella xylostella”, “6” for “3”

[5] = test system: Diabrotica balteata; test: Activity against Diabrotica balteata (Example B2); format: in vivo; details: 144 h, maize seedlings, spray 400 ppm, 2nd instar larvae, 6 days, read-out: percentage reduction in the population (% activity)
Protocol: Maize seedlings are sprayed with an aqueous emulsion spray mixture comprising 400 ppm of active ingredient and, after the spray coating has dried on, populated with 10 larvae (2nd instar) of Diabrotica balteata and introduced into a plastic container. 6 days later, the percentage reduction in the population (% activity) is determined by comparing the number of dead larvae between the treated and untreated plants.

[6] = 0.8 ppm in water of maize seedlings
[7] = 3 ppm in water of maize seedlings
[8] = 12.5 ppm in water of maize seedlings

| melting point | SMILES | Death rate (%) after 4 days [1, 6] | Death rate (%) after 4 days [1, 7] | Death rate (%) after 4 days [1, 8] | inhibition at 400 ppm [2] | inhibition at 400 ppm [3] | inhibition at 400 ppm [4] | insecticidal action on Spodoptera littoralis compared with the compound from the state of the art ([1]; comparison with Comp. 124, Table B9) | inhibition at 400 ppm [5] |
| --- | --- | --- | --- | --- | --- | --- | --- | --- | --- |
| – | Cc1cc(C(F)(C(F)(F)F)C(F)(F)F)ccc1NC(=O)c1cccc(C)c1C(=O)NC(C)(C)CS(C)(=O)=O [Comp. 124, reference compound] | 0% | 20% | 90% | – | – | – | – | – |
| – | Cc1cc(C(F)(C(F)(F)F)C(F)(F)F)ccc1NC(=O)c1cccc(I)c1C(=O)NC(C)(C)CS(C)(=N)=O (centres unmarked) [Compound T1.1.1] | 100% | 100% | 100% | > 80% | > 80% | > 80% | substantially better insecticidal action | > 80% |
| 87 to 88 °C | Cc1cc(C(F)(C(F)(F)F)C(F)(F)F)ccc1NC(=O)c1cccc(Cl)c1C(=O)NC(C)(C)CS(C)(=N)=O (centres unmarked) [Compound T1.1.136] | – | – | – | > 80% | > 80% | > 80% | – | – |
| – | Cc1cc(C(F)(C(F)(F)F)C(F)(F)F)ccc1NC(=O)c1cccc(I)c1C(=O)NC(C)(C)CS(C)(=O)=NC(=O)OC(C)(C)C (centres unmarked) [Compound T55.1.1] | – | – | – | > 80% | – | > 80% | – | – |
| 113 to 114 °C | Cc1cc(C(F)(C(F)(F)F)C(F)(F)F)ccc1NC(=O)c1cccc(Cl)c1C(=O)NC(C)(C)CS(C)(=O)=NC(=O)OC(C)(C)C (centres unmarked) [Compound T55.1.136] | – | – | – | > 80% | – | > 80% | – | – |
| 125 to 126 °C | Cc1cc(C(F)(C(F)(F)F)C(F)(F)F)ccc1NC(=O)c1cccc(I)c1C(=O)NC(C)(C)C/S(C)=N/C(=O)OC(C)(C)C (centres unmarked) [Compound T64.1.1] | – | – | – | > 80% | > 80% | > 80% | – | > 80% |
| – | Cc1cc(C(F)(C(F)(F)F)C(F)(F)F)ccc1NC(=O)c1cccc(Cl)c1C(=O)NC(C)(C)C/S(C)=N/C(=O)OC(C)(C)C (centres unmarked) [Compound T64.1.136] | – | – | – | > 80% | > 80% | > 80% | – | > 80% |
